One series has as its system Adenovirus 5 (AdV5). In words: Cytopathic effects (CPE) reduction assay, AdV5 in HFF cells, 384-well. The note with it: for EC50: AdV 384 Well CPE, HFF cells, average and SD from five independent experiments. It is filed as cell-based, human adenovirus 5 (AdV5).
The next series deals with ocular AdV infections. The note with it: topical, literature; cited from earlier work.
Series [1] can be described thus: Cytotoxicity, CellTiter-Glo cell viability in HFF cells. The following applies: human, human foreskin fibroblast (HFF) cells. The protocol: (§1) Human foreskin tissue was obtained from the University of Alabama at Birmingham tissue procurement facility with approval from the Institutional Review Board. The tissue was stored at 4° C. in cell culture medium consisting of minimum essential media (MEM) with Earle's salts supplemented with 10% fetal bovine serum (FBS; HyClone, Inc., Logan, Utah) and standard concentration of L-glutamine, amphotericin B (Fungizone), and vancomycin. The tissue was then placed in a phosphate-buffered saline solution, minced, and rinsed to remove the red blood cells. Tissue fragments were then resuspended in a trypsin-EDTA solution and incubated at 37° C. to disperse the cells, which were then collected by centrifugation. Cell pellets were then resuspended in 4 ml culture medium, placed in a 25-cm^2 tissue culture flask, and incubated at 37° C. for 24 h. The culture medium was then replaced with fresh medium and condition of the cells was monitored daily until a confluent cell monolayer was formed. The HFF cells were then expanded through serial passages in standard growth medium of MEM with Earle's salts supplemented with 10% FBS, L-glutamine, penicillin, and gentamicin. Each lot of cells was confirmed to be free of mycoplasma infection and routinely passaged or used for assays at or before passage 10.
(§2) Antiviral and cytotoxicity data were obtained in a series of three to five separate experiments for each virus to provide an accurate estimate of antiviral activity and statistical data. Each assay included positive and negative control compounds as well as infected and uninfected controls to ensure the integrity of the experiment.
(§3) The CPE reduction assays were performed in monolayers of human foreskin fibroblast (HFF) cells (5000/well) in 384-well plates in assay media consisting of MEM with Earle's salts, 2% FBS and standard concentrations of L-glutamine, penicillin and gentamycin. 5000 cells were seeded in 384-well microtiter plates and incubated at 37° C. in a humidified 5% CO2 incubator for 24 hours to allow for formation of confluent monolayers.
(§4) Cell monolayers were infected at a multiplicity of infection (MOI) of approximately 0.005 PFU/cell with virus strains including AdV5. […] Cytopathology was determined by the addition of CellTiter-Glo® reagent (Promega, Madison, Wis.).

Series [2] relates to human foreskin fibroblast (HFF) cells. The description is as above. As for the experimental part: as §1, §2, §3, §4
The mark [3] stands for this setting: HFF cells, 384-well, average and SD from five independent experiments.

Read-outs that look alike come from different tables or passages of the source. Where only a bound is given, the exact number is not on record here.

Protocol for Adenovirus 5 (AdV5): Cell monolayers were infected at a multiplicity of infection (MOI) of approximately 0.005 PFU/cell with virus strains including AdV5. […] Cytopathology was determined by the addition of CellTiter-Glo® reagent (Promega, Madison, Wis.). Concentrations of antiviral test compounds sufficient to reduce CPE by 50% (EC50) were interpolated from the experimental data using standard methods in Microsoft® Excel.

As for `Nc1nc(O)c2ncn(COC(CO)CO)c2n1` [GCV, ganciclovir], in the series with Adenovirus 5 (AdV5) (human, adenovirus 5, HFF cells, read-out: SI (selective index, CC50/EC50)), the selectivity ratio is at least 1.5. In addition, the “efficacy in the treatment of AdV conjunctivitis in clinical trials” value in the series on ocular AdV infections is on record as “lacks efficacy”. In series [1], the 50% cytotoxic concentration (CC50) was above 100 µM.

In the series on Adenovirus 5 (AdV5), `O=c1[nH]c(=O)n([C@@H]2CO[C@H](CO)O2)cc1/C=C/Br` [L-BHDU, L-Bromovinyl-Hydroxymethyl-Dioxolan Uracil] displayed an EC50 above 100 µM. In series [2], this compound returned a CC50 above 100 µM. Consider `Nc1ncnc2c1ncn2CCOCP(=O)(O)O` [PMEA, adefovir], for which, in series [2] (setting [3]), the CC50 is above 100 µM. With `Nc1nc2c(ncn2COCCO)c(=O)[nH]1` [ACV, acyclovir], in series [1], the cytotoxic concentration (CC50) was above 100 µM. `O=c1[nH]c(=O)n([C@@H]2O[C@H](CO)[C@@H](O)[C@@H]2F)cc1I` [FIAU]: the concentration giving a half-maximal response (EC50) with Adenovirus 5 (AdV5) was above 100 µM. Further, in series [2], the CC50 is above 100 µM. In the series on Adenovirus 5 (AdV5), `Cc1cn([C@H]2C[C@H](O)[C@]3(CO)C[C@H]23)c(=O)[nH]c1=O` [N-MCT, N-methanocarbathymidine] showed a concentration giving a half-maximal response (EC50) of 57 ± 47 µM. In addition, in series [2] (setting [3]), the midpoint of cytotoxicity, the CC50, lay at 72 ± 33 µM. The compound `OC[C@H]1O[C@@H](n2c(Br)nc3cc(Cl)c(Cl)cc32)[C@H](O)[C@@H]1O` [BDCRB, bromodichlororibobenzimidazole] yielded a half-maximal effective concentration (EC50) in the series with Adenovirus 5 (AdV5) of 70 ± 39 µM. Besides, the 50% cytotoxic concentration (CC50) in series [2] (setting [3]) was 91 ± 13 µM.

In the series on Adenovirus 5 (AdV5) (Human mastadenovirus C), `O=c1[nH]c(=S)c(I)cn1[C@H]1C[C@H](O)[C@@H](CO)O1` [4-thio-IDU, 4-thioidoxuridine] registered a concentration for a half-maximal effect (EC50) of 11 ± 9.4 µM. In series [2] (setting [3]), this compound gave a cytotoxic concentration (CC50) of 26 ± 24 µM.

Source of the values: US20220370464A1, “COMPOSITIONS AND METHODS OF TREATING OR PREVENTING OCULAR INFECTIONS WITH FILOCICLOVIR” (Microbiotix, Inc., priority 2019, published 2022).
